Measurements from patent US20230103791A1 (GLAXOSMITHKLINE INTELLECTUAL PROPERTY DEVELOPMENT LIMITED, priority 2019, published 2023).

Biological target: T1, human Nav1.8 (Homo sapiens, UniProt Q9Y5Y9)
T1 construct: expressed in transfected cells; host or cells: HEK293 (HEK293-Nav1.8)
Assay: Nav1.8 sodium channels assay, QPatch 48 HTX electrophysiology in HEK293-Nav1.8 cells
Assay type: cell-based
Details: at least one set of experimental runs; read-out: average pIC50 value against Nav1.8 (converted)
Procedure: Human embryonic kidney […] cells (HEK293) expressing human Nav1.8, human Navβ1 and human TREK1 (HEK293-Nav1.8) were grown at 37° C., 5% CO2 in 150 cm^2 flasks. HEK293-Nav1.8 were passaged every 2-3 days when confluency reached 80-90% in to T175 cell culture flasks.
Pharmacological assessment of the invention was performed using HEK293-Nav1.8 in combination with an assay developed on the QPatch 48 HTX electrophysiological system. HEK293-Nav1.8 were prepared on the day of use by removing culture media, washing in DPBS, adding Accutase (2 ml to cover the surface, aspirate 1 ml then 1.5 min at 37° C.) followed by addition of CHO-SFM II to stop the enzyme digestion and in order to obtain a suspension of 3×10^6 cell/mL.
The invention was prepared in an extracellular solution of the following composition (in mM) NaCl 145, KCl 4, CaCl2 2, MgCl 2, HEPES 1, Glucose 10, pH 7.4 with NaOH Osmolality 300 mOsM/L. The intracellular solution was used of the following composition (in mM) CsF 115, CsCl 20, NaCl 5, EGTA 10, HEPES 10, Sucrose 20, pH 7.2 with CsOH Osmolality 310 mOsm/L.
Utilizing the voltage-clamp mode in the QPatch 48 HTX system a half inactivation state voltage protocol (V1/2) was used to determine pharmacological activity of the invention at Nav1.8 ion channels. A V1/2 protocol was utilized with the following voltage steps: a holding voltage of −100 mV was established followed by a 20 ms voltage step to 0 mV (P1), followed by an inactivating voltage step at −46 mV for 8 seconds, followed by a step to −100 mV for 20 ms, before a 20 ms step to 0 mV (P2) before returning to the holding voltage of −100 mV. This voltage protocol was repeated at a frequency of 0.07 Hz., current magnitude was quantified at the P2 step throughout the recording. Inhibition of the measured current amplitude with the invention was analyzed by fitting a 6-8 point dose-response curve allowing determination of the fifty percent inhibition concentration (IC50). Within the QPatch HTX software, P2 current was normalized according to measurements made at baseline after compound and after positive reference compound and fit to the following equation: […]
To assess current run-down over the course of the experiment vehicle-only wells were utilized and the normalized current with vehicle-only (n.IVEH) was determined. To correct the compound response for run-down, the currents were correct according the following formula: […]
Compounds of the invention are tested for activity against Nav1. 8 sodium channels in the above assay.

T1 sequence (Q9Y5Y9 whole entry): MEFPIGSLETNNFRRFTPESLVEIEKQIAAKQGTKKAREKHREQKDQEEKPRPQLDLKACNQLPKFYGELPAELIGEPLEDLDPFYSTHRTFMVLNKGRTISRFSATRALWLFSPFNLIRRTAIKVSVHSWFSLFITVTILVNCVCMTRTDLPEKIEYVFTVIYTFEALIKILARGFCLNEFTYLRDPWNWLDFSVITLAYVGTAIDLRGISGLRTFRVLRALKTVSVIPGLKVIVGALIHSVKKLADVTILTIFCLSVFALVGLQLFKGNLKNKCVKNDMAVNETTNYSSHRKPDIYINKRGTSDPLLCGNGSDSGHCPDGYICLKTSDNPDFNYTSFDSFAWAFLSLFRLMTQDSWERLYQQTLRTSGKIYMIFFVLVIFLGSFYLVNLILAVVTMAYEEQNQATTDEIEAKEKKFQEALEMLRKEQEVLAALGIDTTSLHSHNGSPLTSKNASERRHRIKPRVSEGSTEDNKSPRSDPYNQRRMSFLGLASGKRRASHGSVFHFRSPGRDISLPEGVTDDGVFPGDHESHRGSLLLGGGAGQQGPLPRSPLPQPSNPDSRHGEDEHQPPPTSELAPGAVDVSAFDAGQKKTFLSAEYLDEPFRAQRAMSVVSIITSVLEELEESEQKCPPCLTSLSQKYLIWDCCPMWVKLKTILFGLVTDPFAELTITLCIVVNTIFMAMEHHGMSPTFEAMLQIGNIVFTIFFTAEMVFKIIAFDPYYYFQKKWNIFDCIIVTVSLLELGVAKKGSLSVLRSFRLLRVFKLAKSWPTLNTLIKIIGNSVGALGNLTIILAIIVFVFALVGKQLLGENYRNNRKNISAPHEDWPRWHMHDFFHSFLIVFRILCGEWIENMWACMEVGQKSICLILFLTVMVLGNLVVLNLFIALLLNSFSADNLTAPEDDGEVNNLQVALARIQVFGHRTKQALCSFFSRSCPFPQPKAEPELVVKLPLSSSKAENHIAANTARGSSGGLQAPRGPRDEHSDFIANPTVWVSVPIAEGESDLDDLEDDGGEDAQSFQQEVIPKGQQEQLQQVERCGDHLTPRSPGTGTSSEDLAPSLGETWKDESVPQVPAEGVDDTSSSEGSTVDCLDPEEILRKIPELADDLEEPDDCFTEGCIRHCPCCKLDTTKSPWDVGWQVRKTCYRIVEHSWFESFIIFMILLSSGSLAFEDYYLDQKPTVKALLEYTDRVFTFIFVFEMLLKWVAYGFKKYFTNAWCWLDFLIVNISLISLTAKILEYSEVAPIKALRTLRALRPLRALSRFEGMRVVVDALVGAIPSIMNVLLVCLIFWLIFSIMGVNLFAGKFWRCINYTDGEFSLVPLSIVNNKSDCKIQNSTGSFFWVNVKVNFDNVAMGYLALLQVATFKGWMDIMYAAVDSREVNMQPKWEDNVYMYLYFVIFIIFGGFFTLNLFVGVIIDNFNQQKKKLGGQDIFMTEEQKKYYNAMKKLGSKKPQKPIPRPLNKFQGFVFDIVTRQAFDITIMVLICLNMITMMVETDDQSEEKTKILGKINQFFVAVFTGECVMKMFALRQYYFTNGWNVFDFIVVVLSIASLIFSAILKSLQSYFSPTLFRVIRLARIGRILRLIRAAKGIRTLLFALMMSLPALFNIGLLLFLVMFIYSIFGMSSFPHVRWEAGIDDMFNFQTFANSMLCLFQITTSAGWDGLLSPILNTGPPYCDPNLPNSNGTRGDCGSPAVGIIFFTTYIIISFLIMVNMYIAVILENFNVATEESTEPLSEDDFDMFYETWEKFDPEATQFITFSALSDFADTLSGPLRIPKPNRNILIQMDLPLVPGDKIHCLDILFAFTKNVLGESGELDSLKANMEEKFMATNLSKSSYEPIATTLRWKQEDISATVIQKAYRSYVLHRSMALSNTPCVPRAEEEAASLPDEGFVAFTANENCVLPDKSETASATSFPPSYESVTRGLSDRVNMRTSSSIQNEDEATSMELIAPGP
T1 sequence (Q07699 19-218 partner): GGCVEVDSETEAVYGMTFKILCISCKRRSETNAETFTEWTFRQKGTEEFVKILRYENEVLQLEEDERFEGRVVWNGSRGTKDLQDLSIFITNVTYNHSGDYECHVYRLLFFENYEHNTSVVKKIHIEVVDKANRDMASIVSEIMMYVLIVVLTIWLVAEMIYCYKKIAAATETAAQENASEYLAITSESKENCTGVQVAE

Row | SMILES | IC50
1 | Cc1cc(F)ccc1N1CN(c2ccc(=O)[nH]c2C)C(=O)c2ccccc21 [Example 52, 1-(4-fluoro-2-methylphenyl)-3-(2-methyl-6-oxo-1,6-dihydropyridin-3-yl)-2,3-dihydroquinazolin-4(1H)-one] | ≤ 100 nM
2 | Cc1cc(N2CN(c3ccc(F)cc3C)c3cc(C(F)(F)F)ccc3C2=O)cc(=O)[nH]1 [Example 53, 1-(4-fluoro-2-methylphenyl)-3-(6-methyl-2-oxo-1,2-dihydropyridin-4-yl)-7-(trifluoromethyl)-2,3-dihydroquinazolin-4(1H)-one] | 794 to 7940 nM
3 | Cc1c[nH]c(=O)cc1N1CN(c2ccc(F)cc2C)c2cc(C(F)(F)F)ccc2C1=O [Example 54, 1-(4-fluoro-2-methylphenyl)-3-(5-methyl-2-oxo-1,2-dihydropyridin-4-yl)-7-(trifluoromethyl)-2,3-dihydroquinazolin-4(1H)-one] | 794 to 7940 nM
4 | Cc1cc(F)ccc1N1CN(c2cc[nH]c(=O)c2C)C(=O)c2ccc(C(F)(F)F)cc21 [Example 55, 1-(4-fluoro-2-methylphenyl)-3-(3-methyl-2-oxo-1,2-dihydropyridin-4-yl)-7-(trifluoromethyl)-2,3-dihydroquinazolin-4(1H)-one] | 794 to 7940 nM
5 | Cc1cc(F)ccc1N1CN(c2ccc(=O)[nH]c2C)C(=O)c2ccc(OC(F)(F)F)cc21 [Example 56, 1-(4-fluoro-2-methylphenyl)-3-(2-methyl-6-oxo-1,6-dihydropyridin-3-yl)-7-(trifluoromethoxy)-2,3-dihydroquinazolin-4(1H)-one] | ≤ 100 nM
6 | Cc1cc(F)ccc1N1CN(c2ncc(=O)[nH]c2C)C(=O)c2ccc(C(F)(F)F)cc21 [Example 58, 1-(4-fluoro-2-methylphenyl)-3-(3-methyl-5-oxo-4,5-dihydropyrazin-2-yl)-7-(trifluoromethyl)-2,3-dihydroquinazolin-4(1H)-one] | 126 to 631 nM
7 | Cc1cc(F)ccc1N1CN(c2cc(=O)[nH]c(=O)[nH]2)C(=O)c2ccc(C(F)(F)F)cc21 [Example 59, 6-(1-(4-fluoro-2-methylphenyl)-4-oxo-7-(trifluoromethyl)-1,4-dihydroquinazolin-3(2H)-yl)pyrimidine-2,4(1H,3H)-dione] | 794 to 7940 nM
8 | CCc1cc(F)ccc1N1CN(c2ccc(=O)[nH]c2C)C(=O)c2cc(C(F)(F)F)ccc21 [Example 60, 1-(2-ethyl-4-fluorophenyl)-3-(2-methyl-6-oxo-1,6-dihydropyridin-3-yl)-6-(trifluoromethyl)-2,3-dihydroquinazolin-4(1H)-one] | ≤ 100 nM
9 | Cc1cc(F)ccc1N1CN(c2c[nH]c(=O)nc2C)C(=O)c2cc(Cl)ccc21 [Example 61, 6-chloro-1-(4-fluoro-2-methylphenyl)-3-(4-methyl-2-oxo-1,2-dihydropyrimidin-5-yl)-2,3-dihydroquinazolin-4(1H)-one] | ≤ 100 nM
10 | Cc1cc(=O)[nH]c(C)c1N1CN(c2ccc(F)cc2C(C)C)c2cc(C(F)(F)F)ccc2C1=O [Example 62, 3-(2,4-dimethyl-6-oxo-1,6-dihydropyridin-3-yl)-1-(4-fluoro-2-isopropylphenyl)-7-(trifluoromethyl)-2,3-dihydroquinazolin-4(1H)-one] | 794 to 7940 nM
11 | Cc1[nH]c(=O)ccc1N1CN(c2ccc(F)cc2C(C)C)c2ncc(C(F)(F)F)cc2C1=O [Example 63] | ≤ 100 nM
12 | CCc1[nH]c(=O)ccc1N1CN(c2ccc(F)cc2C)c2ccc(C(F)(F)F)cc2C1=O [Example 64, 3-(2-ethyl-6-oxo-1,6-dihydropyridin-3-yl)-1-(4-fluoro-2-methylphenyl)-6-(trifluoromethyl)-2,3-dihydroquinazolin-4(1H)-one] | ≤ 100 nM
13 | CCOc1cc(F)ccc1N1CN(c2ccc(=O)[nH]c2C)C(=O)c2cc(Cl)ccc21 [Example 68, 6-chloro-1-(2-ethoxy-4-fluorophenyl)-3-(2-methyl-6-oxo-1,6-dihydropyridin-3-yl)-2,3-dihydroquinazolin-4(1H)-one] | 126 to 631 nM
14 | Cc1ccc2c(c1)N(c1ccc(F)cc1C(C)C)CN(c1ccc(=O)[nH]c1C)C2=O [Example 69, 1-(4-fluoro-2-isopropylphenyl)-7-methyl-3-(2-methyl-6-oxo-1,6-dihydropyridin-3-yl)-2,3-dihydroquinazolin-4(1H)-one] | ≤ 100 nM
15 | Cc1cc(F)ccc1N1CN(c2ccc(=O)[nH]c2C)C(=O)c2cc(F)c(C(F)F)cc21 [Example 70, 7-(difluoromethyl)-6-fluoro-1-(4-fluoro-2-methylphenyl)-3-(2-methyl-6-oxo-1,6-dihydropyridin-3-yl)-2,3-dihydroquinazolin-4(1H)-one] | ≤ 100 nM
16 | Cc1cc(OC(F)(F)F)ccc1N1CN(c2ccc(=O)[nH]c2C)C(=O)c2c1ccc(Cl)c2F [Example 74, 6-chloro-5-fluoro-1-(2-methyl-4-(trifluorometh-oxy)phenyl)-3-(2-methyl-6-oxo-1,6-dihydropyridin-3-yl)-2,3-dihydroquinazolin-4(1H)-one] | ≤ 100 nM
17 | Cc1[nH]c(=O)ccc1N1CN(c2ccc(F)cc2C(C)C)c2ccc(Cl)cc2C1=O [Example 76, 6-chloro-1-(4-fluoro-2-isopropylphenyl)-3-(2-methyl-6-oxo-1,6-dihydropyridin-3-yl)-2,3-dihydroquinazolin-4(1H)-one] | ≤ 100 nM
18 | Cc1[nH]c(=O)ccc1N1CN(c2ccc(F)c(O)c2C)c2cc(C(F)(F)F)ccc2C1=O [Example 77, 1-(4-fluoro-3-hydroxy-2-methylphenyl)-3-(2-methyl-6-oxo-1,6-dihydropyridin-3-yl)-7-(trifluoromethyl)-2,3-dihydroquinazolin-4(1H)-one] | 126 to 631 nM
19 | Cc1cc(F)ccc1N1CN(c2ccc(=O)[nH]c2)C(=O)c2c1ccc(Cl)c2F [Example 78, 6-chloro-5-fluoro-1-(4-fluoro-2-methylphenyl)-3-(6-oxo-1,6-dihydropyridin-3-yl)-2,3-dihydroquinazolin-4(1H)-one] | 126 to 631 nM

Continued, values first:

Row | IC50 | SMILES
20 | ≤ 100 nM | Cc1ccc2c(c1)N(c1ccc(F)cc1C)CN(c1ccc(=O)[nH]c1C)C2=O [Example 57, 1-(4-fluoro-2-methylphenyl)-7-methyl-3-(2-methyl-6-oxo-1,6-dihydropyridin-3-yl)-2,3-dihydroquinazolin-4(1H)-one]
21 | ≤ 100 nM | Cc1cc(F)ccc1N1CN(c2ccc(=O)[nH]c2C)C(=O)c2ccc(N(C)C)cc21 [Example 65, 7-(dimethylamino)-1-(4-fluoro-2-methylphenyl)-3-(2-methyl-6-oxo-1,6-dihydropyridin-3-yl)-2,3-dihydroquinazolin-4(1H)-one]
22 | ≤ 100 nM | Cc1cc(F)ccc1N1CN(c2ccc(=O)[nH]c2C)C(=O)c2ccc(Cl)cc21 [Example 66, 7-chloro-1-(4-fluoro-2-methylphenyl)-3-(2-methyl-6-oxo-1,6-dihydropyridin-3-yl)-2,3-dihydroquinazolin-4(1H)-one]
23 | 126 to 631 nM | CNc1ccc2c(c1)N(c1ccc(F)cc1C)CN(c1ccc(=O)[nH]c1C)C2=O [Example 67, 1-(4-fluoro-2-methylphenyl)-3-(2-methyl-6-oxo-1,6-dihydropyridin-3-yl)-7-(methylamino)-2,3-dihydroquinazolin-4(1H)-one]
24 | 126 to 631 nM | Cc1cc(F)ccc1N1CN(c2ccc(=O)[nH]c2C)C(=O)c2cc(F)c(C)nc21 [Example 71, 6-fluoro-1-(4-fluoro-2-methylphenyl)-7-methyl-3-(2-methyl-6-oxo-1,6-dihydropyridin-3-yl)-2,3-dihydropyrido[2,3-d]pyrimidin-4(1H)-one]
25 | ≤ 100 nM | Cc1cc(F)ccc1N1CN(c2ccc(=O)[nH]c2C)C(=O)c2cc(Cl)c(C)nc21 [Example 72, 6-chloro-1-(4-fluoro-2-methylphenyl)-7-methyl-3-(2-methyl-6-oxo-1,6-dihydropyridin-3-yl)-2,3-dihydropyrido[2,3-d]pyrimidin-4(1H)-one]
26 | ≤ 100 nM | Cc1cc(F)ccc1N1CN(c2ccc(=O)[nH]c2C)C(=O)c2cc(Cl)c(Cl)nc21 [Example 73, 6,7-dichloro-1-(4-fluoro-2-methylphenyl)-3-(2-methyl-6-oxo-1,6-dihydropyridin-3-yl)-2,3-dihydropyrido[2,3-d]pyrimidin-4(1H)-one]
27 | 126 to 631 nM | Cc1cc(F)ccc1N1CN(c2ccc(=O)[nH]c2C)C(=O)c2cc(C#N)ccc21 [Example 75, 1-(4-fluoro-2-methylphenyl)-3-(2-methyl-6-oxo-1,6-dihydropyridin-3-yl)-4-oxo-1,2,3,4-tetrahydroquin-azoline-6-carbonitrile]
